Experimental data from ChEMBL document CHEMBL1147799, “An integrated in silico 3D model-driven discovery of a novel, potent, and selective amidosulfonamide 5-HT1A agonist (PRX-00023) for the treatment of anxiety and depression” (J Med Chem, 2006).

Legend:
[1] = target: T1, 5-hydroxytryptamine receptor 1A (Homo sapiens) (UniProt P08908); assay: Activity against 5HT1A receptor relative to 5-HT by Gi-[35S]GTP-gamma-S binding assay; format: functional
T1 sequence (whole entry): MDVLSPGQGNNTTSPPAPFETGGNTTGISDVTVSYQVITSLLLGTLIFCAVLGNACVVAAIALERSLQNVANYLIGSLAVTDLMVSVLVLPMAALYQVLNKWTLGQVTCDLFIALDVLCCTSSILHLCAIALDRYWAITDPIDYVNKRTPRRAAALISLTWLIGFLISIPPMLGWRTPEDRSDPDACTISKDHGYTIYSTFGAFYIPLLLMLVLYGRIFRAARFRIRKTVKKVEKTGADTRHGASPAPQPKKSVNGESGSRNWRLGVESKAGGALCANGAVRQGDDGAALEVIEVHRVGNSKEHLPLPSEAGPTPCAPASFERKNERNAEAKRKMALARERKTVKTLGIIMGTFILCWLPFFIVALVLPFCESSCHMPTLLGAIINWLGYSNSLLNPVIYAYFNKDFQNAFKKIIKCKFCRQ

[2] = target: 5-hydroxytryptamine receptor 2A (Homo sapiens, UniProt P28223)
Chain of 5-hydroxytryptamine receptor 2A (P28223 whole entry): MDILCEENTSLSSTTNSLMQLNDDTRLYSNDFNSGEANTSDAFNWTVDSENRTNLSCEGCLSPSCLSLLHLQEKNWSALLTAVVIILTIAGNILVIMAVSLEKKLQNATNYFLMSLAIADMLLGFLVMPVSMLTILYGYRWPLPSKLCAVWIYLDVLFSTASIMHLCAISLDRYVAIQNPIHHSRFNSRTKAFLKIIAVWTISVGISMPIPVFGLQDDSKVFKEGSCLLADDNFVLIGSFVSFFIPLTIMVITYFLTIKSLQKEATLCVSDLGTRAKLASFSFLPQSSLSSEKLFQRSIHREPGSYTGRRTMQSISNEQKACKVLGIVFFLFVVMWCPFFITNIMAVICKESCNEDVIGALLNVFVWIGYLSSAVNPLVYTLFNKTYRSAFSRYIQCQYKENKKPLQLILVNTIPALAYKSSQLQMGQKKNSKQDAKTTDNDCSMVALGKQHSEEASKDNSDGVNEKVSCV
Description: Binding affinity to 5HT2A receptor by radioligand binding assay

[3] = target: T2, Adrenergic receptor alpha-1 (Rattus norvegicus, UniProt P15823+P23944+P43140); assay: Displacement of [3H]prazosin from adrenergic alpha-1 receptor in rat cerebral cortex cells; format: cell-based
T2 sequence (P15823 whole entry): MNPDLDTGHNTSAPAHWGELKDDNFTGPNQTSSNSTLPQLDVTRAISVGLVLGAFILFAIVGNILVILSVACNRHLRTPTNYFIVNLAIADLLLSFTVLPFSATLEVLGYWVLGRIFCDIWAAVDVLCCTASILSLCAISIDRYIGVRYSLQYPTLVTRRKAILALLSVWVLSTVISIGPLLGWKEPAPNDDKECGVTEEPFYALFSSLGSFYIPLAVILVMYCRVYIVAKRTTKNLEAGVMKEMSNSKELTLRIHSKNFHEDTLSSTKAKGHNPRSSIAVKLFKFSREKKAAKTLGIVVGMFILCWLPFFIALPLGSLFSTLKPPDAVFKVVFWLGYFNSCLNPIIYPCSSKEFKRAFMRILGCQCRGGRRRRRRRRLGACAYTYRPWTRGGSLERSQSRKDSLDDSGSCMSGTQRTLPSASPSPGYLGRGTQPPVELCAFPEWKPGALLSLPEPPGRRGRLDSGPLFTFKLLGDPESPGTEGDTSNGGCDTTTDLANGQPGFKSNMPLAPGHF
T2 sequence (P23944 whole entry): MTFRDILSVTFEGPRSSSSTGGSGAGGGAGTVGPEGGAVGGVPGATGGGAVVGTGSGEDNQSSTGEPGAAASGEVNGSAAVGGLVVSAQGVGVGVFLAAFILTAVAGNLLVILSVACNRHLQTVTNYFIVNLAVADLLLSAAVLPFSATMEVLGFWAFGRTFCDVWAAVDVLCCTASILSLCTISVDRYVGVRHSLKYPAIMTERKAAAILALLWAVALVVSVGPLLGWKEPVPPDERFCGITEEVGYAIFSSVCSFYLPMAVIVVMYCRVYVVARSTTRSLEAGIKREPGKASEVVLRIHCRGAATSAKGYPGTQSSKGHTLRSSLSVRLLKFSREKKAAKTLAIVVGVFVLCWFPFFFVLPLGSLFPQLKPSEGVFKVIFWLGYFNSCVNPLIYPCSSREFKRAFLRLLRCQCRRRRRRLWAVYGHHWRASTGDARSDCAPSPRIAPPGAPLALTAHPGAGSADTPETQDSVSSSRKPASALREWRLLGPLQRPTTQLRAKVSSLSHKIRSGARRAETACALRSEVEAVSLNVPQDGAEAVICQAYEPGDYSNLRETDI
T2 sequence (P43140 whole entry): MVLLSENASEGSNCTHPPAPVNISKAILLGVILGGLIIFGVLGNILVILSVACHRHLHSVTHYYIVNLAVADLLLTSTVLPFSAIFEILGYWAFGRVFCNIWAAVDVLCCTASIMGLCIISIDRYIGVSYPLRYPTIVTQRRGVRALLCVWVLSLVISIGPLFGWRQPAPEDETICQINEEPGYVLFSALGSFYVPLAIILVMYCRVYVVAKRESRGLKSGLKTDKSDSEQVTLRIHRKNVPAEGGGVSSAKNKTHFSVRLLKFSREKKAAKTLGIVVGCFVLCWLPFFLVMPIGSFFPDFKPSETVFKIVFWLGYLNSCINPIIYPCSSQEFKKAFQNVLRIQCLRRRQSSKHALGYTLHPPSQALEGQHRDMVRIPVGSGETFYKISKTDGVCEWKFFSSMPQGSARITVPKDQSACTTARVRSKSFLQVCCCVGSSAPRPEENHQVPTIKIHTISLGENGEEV

[4] = Half life in Sprague-Dawley rat at 3 mg/kg, po; format: ADME, organism-based; design: dose 3 mg/kg, route oral; conditions: in vivo
[5] = target: Sodium-dependent serotonin transporter (Homo sapiens, UniProt P31645); assay: Binding affinity to 5HT transporter by radioligand binding assay
Chain of Sodium-dependent serotonin transporter (P31645 whole entry): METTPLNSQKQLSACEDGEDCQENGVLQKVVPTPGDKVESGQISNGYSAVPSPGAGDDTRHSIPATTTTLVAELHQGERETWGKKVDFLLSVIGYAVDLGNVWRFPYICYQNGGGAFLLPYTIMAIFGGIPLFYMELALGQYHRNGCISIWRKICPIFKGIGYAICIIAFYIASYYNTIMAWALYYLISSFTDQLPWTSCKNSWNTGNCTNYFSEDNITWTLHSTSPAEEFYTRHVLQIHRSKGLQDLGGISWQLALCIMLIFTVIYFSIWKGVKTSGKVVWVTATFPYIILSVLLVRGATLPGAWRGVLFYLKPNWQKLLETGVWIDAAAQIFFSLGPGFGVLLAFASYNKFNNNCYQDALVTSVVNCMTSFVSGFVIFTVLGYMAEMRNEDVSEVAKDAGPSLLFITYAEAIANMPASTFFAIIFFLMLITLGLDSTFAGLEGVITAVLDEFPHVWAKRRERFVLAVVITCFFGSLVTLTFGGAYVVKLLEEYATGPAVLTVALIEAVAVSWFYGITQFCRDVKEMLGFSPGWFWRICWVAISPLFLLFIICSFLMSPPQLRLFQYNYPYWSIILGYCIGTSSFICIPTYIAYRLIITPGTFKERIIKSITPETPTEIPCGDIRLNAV

[6] = target: T3, 5-hydroxytryptamine receptor 1A (Homo sapiens, UniProt P08908); assay: Activity against 5HT1A receptor by Gi-[35S]GTP-gamma-S binding assay; format: functional
T3 sequence (P08908 whole entry): T1 sequence (whole entry)

[7] = target: T3, 5-hydroxytryptamine receptor 1A; assay: Displacement of [3H]8-OH-DPAT from human 5HT1A receptor in HEK293 cells
[8] = target: 5-hydroxytryptamine receptor 2B (Homo sapiens, UniProt P41595); assay: Binding affinity to 5HT2B receptor by radioligand binding assay
Chain of 5-hydroxytryptamine receptor 2B (P41595 whole entry): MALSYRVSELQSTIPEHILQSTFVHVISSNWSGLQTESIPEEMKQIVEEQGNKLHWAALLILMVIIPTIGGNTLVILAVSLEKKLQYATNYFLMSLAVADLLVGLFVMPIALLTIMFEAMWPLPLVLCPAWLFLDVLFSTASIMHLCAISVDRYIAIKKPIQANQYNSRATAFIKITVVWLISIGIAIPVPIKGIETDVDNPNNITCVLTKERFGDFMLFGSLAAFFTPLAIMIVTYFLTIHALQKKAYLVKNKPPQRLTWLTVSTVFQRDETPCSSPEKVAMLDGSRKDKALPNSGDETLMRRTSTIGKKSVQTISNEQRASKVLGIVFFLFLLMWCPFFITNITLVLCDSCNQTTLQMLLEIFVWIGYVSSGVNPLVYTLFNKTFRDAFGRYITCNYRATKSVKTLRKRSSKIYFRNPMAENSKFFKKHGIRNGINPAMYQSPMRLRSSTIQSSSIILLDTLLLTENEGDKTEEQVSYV

[9] = Oral bioavailability in Sprague-Dawley rat at 3 mg/kg, po and 1 mg/kg, iv; format: ADME, organism-based; conditions: in vivo
[10] = target: Alpha-2A adrenergic receptor (Rattus norvegicus, UniProt P22909); assay: Displacement of [3H]RX 821002 from Adrenergic alpha-2a receptor in rat cerebral cortex cells; format: cell-based
Chain of Alpha-2A adrenergic receptor (P22909 whole entry): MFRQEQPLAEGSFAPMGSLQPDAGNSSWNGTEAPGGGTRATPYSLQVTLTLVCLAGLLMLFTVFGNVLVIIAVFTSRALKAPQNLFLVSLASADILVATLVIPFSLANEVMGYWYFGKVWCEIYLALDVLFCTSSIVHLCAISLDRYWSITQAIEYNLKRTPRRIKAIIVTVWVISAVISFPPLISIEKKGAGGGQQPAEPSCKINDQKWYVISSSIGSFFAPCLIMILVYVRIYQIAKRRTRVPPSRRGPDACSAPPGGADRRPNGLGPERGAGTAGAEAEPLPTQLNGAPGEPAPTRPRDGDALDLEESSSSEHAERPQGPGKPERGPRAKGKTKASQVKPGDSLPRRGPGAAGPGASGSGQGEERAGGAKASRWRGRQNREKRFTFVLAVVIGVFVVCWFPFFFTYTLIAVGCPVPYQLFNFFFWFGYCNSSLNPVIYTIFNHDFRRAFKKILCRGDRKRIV

[11] = target: 5-hydroxytryptamine receptor 7 (Homo sapiens, UniProt P34969)
Chain of 5-hydroxytryptamine receptor 7 (P34969 whole entry): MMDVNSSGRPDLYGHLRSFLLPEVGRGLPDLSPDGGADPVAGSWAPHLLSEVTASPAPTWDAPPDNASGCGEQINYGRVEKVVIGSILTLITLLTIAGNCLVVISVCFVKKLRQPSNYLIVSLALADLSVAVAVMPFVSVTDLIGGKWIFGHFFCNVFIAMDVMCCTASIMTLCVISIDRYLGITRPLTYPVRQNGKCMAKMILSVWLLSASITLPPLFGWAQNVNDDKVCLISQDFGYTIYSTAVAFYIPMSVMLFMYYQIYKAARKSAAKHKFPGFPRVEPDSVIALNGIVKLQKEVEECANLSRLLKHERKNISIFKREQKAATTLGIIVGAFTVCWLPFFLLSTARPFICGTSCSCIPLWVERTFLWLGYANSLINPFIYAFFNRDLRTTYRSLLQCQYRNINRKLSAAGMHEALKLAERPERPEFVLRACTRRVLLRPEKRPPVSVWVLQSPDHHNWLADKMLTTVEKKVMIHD
Description: Binding affinity to 5HT7 receptor by radioligand binding assay

## COc1ccccc1N1CCN(CCCCNS(=O)(=O)c2ccc(C)cc2)CC1
[1]
  Activity: 65%
[2]
  Ki: 490 nM
[3]
  Ki: 6 nM
[4]
  half-life: 1 h
[5]
  Ki: 200 nM
[6]
  EC50: 21 nM
[7]
  Ki: 1 nM
[8]
  Ki: 53 nM
[9]
  bioavailability: 2%
[10]
  Ki: 12 nM
[11]
  Ki: 30 nM
